Data set [1] is described as follows: Intrinsic clearance in CD1 mouse liver microsomes at 0.5 uM measured up to 30 mins in presence of NADPH by UPLC-MSMS analysis. The class given is ADME, Microsome. The conditions noted are these: 0.5 h. Background: Liver microsomes are a subcellular fraction often used to study metabolism.
Data set [2] can be described thus: Selectivity ratio, EC50 for cytotoxicity against rat L6 cells to EC50 for antitrypanosomal activity against Trypanosoma cruzi Tulahuen strain C2C4 trypomastigotes infected in rat L6 cells. Format: toxicity, cell-based. The conditions noted are these: read-out: Ratio EC50.
Data set [3] concerns Trypanosoma cruzi. The data set can be described thus: Antitrypanosomal activity against Trypanosoma cruzi Tulahuen strain C2C4 trypomastigotes infected in rat L6 cells incubated for 96 hrs by photometric method based assay. Format: functional, organism-based. The note with it: Tulahuen strain C2C4, L6, 96 h.
Data set [4] is described as follows: Kinetic aqueous solubility of compound in DMSO by nephelometric analysis. The note with it: read-out: Kinetic_solubility. Format: physicochemical.
The test system of a further data set is L6. The data set can be described thus: Cytotoxicity against rat L6 cells incubated for 70 hrs by resazurin dye based assay. Format: cell-based. The conditions noted are these: L6, 70 h. Background: Resazurin is reduced to fluorescent resorufin, in cell work by metabolically active cells.
Data set [5] deals with Trypanosoma cruzi. In words: Antitrypanosomal activity against Trypanosoma cruzi Brazil strain trypomastigotes coexpressing luciferase infected in BALB/c mouse model of acute chagas disease assessed as reduction in parasite level at 30 mg/kg, ip treated 3 days post infection and measured on day 5 and 10. The class given is functional, organism-based.
Data set [6] in a line: Fraction unbound in NMRI mouse plasma at 30 mg/kg, iv by UPLC-MS/MS analysis. The class given is ADME, organism-based.
In data set [7] the test system is Trypanosoma cruzi. In words: Antitrypanosomal activity against Trypanosoma cruzi Brazil strain trypomastigotes coexpressing luciferase infected in BALB/c mouse model of acute chagas disease assessed as reduction in parasite level at 30 mg/kg, po treated 3 days post infection and measured on day 5 and 10. Format: functional, organism-based.
The nature of data set [8]: Toxicity in ip dosed BALB/c mouse model of acute chagas disease assessed as maximum tolerated dose. Format: organism-based. The note with it: in vivo.

The values below come from ChEMBL document CHEMBL4402577, “Discovery and Optimization of a Compound Series Active against Trypanosoma cruzi, the Causative Agent of Chagas Disease” (J Med Chem, 2020).

Each structure is given as a SMILES string. Converted amounts (≈) assume the structure as drawn. The source made the active and inactive calls. The calls are words filed in the database; no cut-off is given here.

For orientation: EC50 means the concentration at which the effect is half-maximal. `CC[C@H]1CC[C@H](n2c(=O)[nH]c3ccc(NC(C)=O)cc3c2=O)CC1`: the intrinsic clearance in data set [1] stood at 2.4 mL/min/g. Besides, in data set [2], the selectivity ratio came out at 240. For the same molecule, the EC50 turned out to be 0.058 µM in the data set on Trypanosoma cruzi [3] and 14 µM with L6. Also, in data set [4], the solubility kinetic amounted to 115 µM (≈ 37.9 µg/mL).

On to `CC(=O)Nc1ccc2[nH]c(=O)n([C@H]3CO[C@@H](C(C)(C)C)OC3)c(=O)c2c1`, for which the intrinsic clearance in [1] stood at 7.2 mL/min/g. Further, in [2], the selectivity ratio came out at 29. Also, the half-maximal effective concentration (EC50) in the data set on Trypanosoma cruzi [3] turned out to be 6.4 µM; in the data set on L6, 183 µM. The solubility kinetic in [4] was above 270 µM.

Take `CC(=O)Nc1cnc2[nH]c(=O)n([C@H]3CC[C@H](C(C)(C)C)CC3)c(=O)c2c1`: the intrinsic clearance in data set [1] amounted to 1.4 mL/min/g. Also, the selectivity ratio in data set [2] came to 80. The concentration giving a half-maximal response (EC50) with Trypanosoma cruzi [3] was 0.84 µM; in the data set with L6 it was 67 µM. Moreover, in [4], the solubility kinetic worked out at 310 µM (≈ 111 µg/mL).

As to `CC[C@H]1CC[C@@H](n2c(=O)[nH]c3ncc(NC(C)=O)cc3c2=O)CC1`, the intrinsic clearance in [1] came to 2.7 mL/min/g. In data set [2], the selectivity ratio stood at 150. For the same molecule, the concentration for a half-maximal effect (EC50) was found to be 0.33 µM in the data set on Trypanosoma cruzi [3] and 48 µM in the data set on L6. Also, the solubility kinetic in data set [4] stood at 48 µM (≈ 15.9 µg/mL).

`CC[C@H]1CC[C@H](n2c(=O)[nH]c3ncc(N)cc3c2=O)CC1`: in [1], the intrinsic clearance was determined as 0.9 mL/min/g. Further, the selectivity ratio in data set [2] is 150. For the same molecule, the EC50 in the data set with Trypanosoma cruzi [3] came out at 0.34 µM; in the data set on L6 it was 51 µM. In addition, the solubility kinetic in data set [4] stood at 55 µM (≈ 15.9 µg/mL).

Consider `CC(=O)Nc1ccc2[nH]c(=O)n([C@H]3CC[C@@H](C(F)(F)F)CC3)c(=O)c2c1`, for which the intrinsic clearance in data set [1] was found to be 2.7 mL/min/g. Moreover, the selectivity ratio in [2] was determined as 4.2. The EC50 in the data set with Trypanosoma cruzi [3] came to 4.3 µM; in the data set on L6, 18 µM. In addition, the solubility kinetic in [4] was 180 µM (≈ 66.5 µg/mL).

For `CC(=O)Nc1ccc2[nH]c(=O)n(C3CCC(C)(C)CC3)c(=O)c2c1`, the intrinsic clearance in data set [1] came out at 3.7 mL/min/g. For the same molecule, the selectivity ratio in data set [2] was determined as 67. Further, the EC50 in the data set on Trypanosoma cruzi [3] amounted to 0.18 µM; with L6, 12 µM. Also, in [4], the solubility kinetic came to 128 µM (≈ 42.2 µg/mL).

What is called fraction unbound is free concentration divided by total concentration. The low end stands for extensive binding, the high end for weak binding. The MTD is the largest dose that counted as tolerated. For the molecule `CC(C)(C)[C@H]1CC[C@H](n2c(=O)[nH]c3ccc(N)cc3c2=O)CC1`, the intrinsic clearance in [1] was found to be 2 mL/min/g. Also, the selectivity ratio in data set [2] was found to be 330. Moreover, the outcome in the data set with Trypanosoma cruzi [5] and in the data set on Trypanosoma cruzi [7] was inactive. The EC50 with Trypanosoma cruzi [3] worked out at 0.063 µM; in the data set on L6 it was 21 µM. The molecule also yielded an unbound share (fraction unbound) in data set [6] of 0.011. In data set [8], the MTD is 30 mg/kg.

Regarding `CC(C)[C@H]1CC[C@H](n2c(=O)[nH]c3ncc(N)cc3c2=O)CC1`, the intrinsic clearance in [1] was 1.9 mL/min/g. In addition, the selectivity ratio in [2] turned out to be 380. Further, the concentration for a half-maximal effect (EC50) in the data set on Trypanosoma cruzi [3] was determined as 0.12 µM; with L6, 46 µM. For the same molecule, in data set [4], the solubility kinetic is 25 µM (≈ 7.56 µg/mL).

For the molecule `CC(=O)Nc1ccc2[nH]c(=O)n([C@H]3CC[C@@H](C(C)(C)C)CC3)c(=O)c2c1`, the intrinsic clearance in [1] is below 0.5 mL/min/g. Also, in [2], the selectivity ratio turned out to be 290. Further, the EC50 came to 0.017 µM in the data set on Trypanosoma cruzi [3] and 5 µM with L6. In addition, the solubility kinetic in [4] was 95 µM (≈ 34 µg/mL).

For `CC[C@H]1CC[C@@H](n2c(=O)[nH]c3ncc(N)cc3c2=O)CC1`, the intrinsic clearance in data set [1] came out at 1.7 mL/min/g. For the same molecule, the selectivity ratio in data set [2] worked out at 210. For the same molecule, the results for the EC50 in the data set on Trypanosoma cruzi [3] and in the data set on L6 were 1.2 µM and 250 µM, respectively. For the same molecule, the solubility kinetic in data set [4] was below 17 µM.

Turning to `CCC[C@H]1CC[C@H](n2c(=O)[nH]c3ccc(NC(C)=O)cc3c2=O)CC1`, in data set [1], the intrinsic clearance stood at 1.5 mL/min/g. For the same molecule, in data set [2], the selectivity ratio came out at 730. The EC50 worked out at 0.015 µM with Trypanosoma cruzi [3] and 11 µM in the data set with L6. Also, the solubility kinetic in [4] turned out to be 47 µM (≈ 16.1 µg/mL).

On to `CC(=O)Nc1cnc2[nH]c(=O)n([C@H]3CC[C@@H](C(C)C)CC3)c(=O)c2c1`, for which the intrinsic clearance in data set [1] turned out to be 10 mL/min/g. The selectivity ratio in [2] was determined as 42. Further, the EC50 in the data set on Trypanosoma cruzi [3] worked out at 0.38 µM; in the data set with L6 it was 16 µM. Also, the solubility kinetic in [4] was determined as 15 µM (≈ 5.17 µg/mL).

A word on the EC90: it is the concentration needed for an effect of 90%. As to `CC(=O)Nc1ccc2[nH]c(=O)n([C@H]3CC[C@H](C(C)C)CC3)c(=O)c2c1`, the intrinsic clearance in data set [1] turned out to be 3.2 mL/min/g. Moreover, the selectivity ratio in data set [2] was 150. The outcome in the data set with Trypanosoma cruzi [5] and with Trypanosoma cruzi [7] was Active. The results for the EC50 in the data set on Trypanosoma cruzi [3] and in the data set with L6 were 0.026 µM and 3.8 µM, respectively. This molecule also showed an EC90 in the data set on Trypanosoma cruzi [3] of 0.038 µg/mL (≈ 0.111 µM). Further, the fraction unbound in data set [6] came out at 0.028. Besides, in [4], the solubility kinetic turned out to be 73 µM (≈ 25.1 µg/mL).

Regarding `CC[C@H]1CC[C@@H](n2c(=O)[nH]c3ccc(NC(C)=O)cc3c2=O)CC1`, in data set [1], the intrinsic clearance was determined as 12 mL/min/g. Also, the selectivity ratio in data set [2] came to 460. Further, the concentration giving a half-maximal response (EC50) in the data set on Trypanosoma cruzi [3] amounted to 0.085 µM; in the data set with L6, 39 µM. Further, the solubility kinetic in [4] turned out to be 73 µM (≈ 24 µg/mL).

On to `CC(C)(C)[C@H]1CC[C@@H](n2c(=O)[nH]c3ccc(N)cc3c2=O)CC1`, for which the intrinsic clearance in [1] turned out to be 3.9 mL/min/g. In addition, in data set [4], the solubility kinetic is 240 µM (≈ 75.7 µg/mL).

As to `CC[C@H]1CC[C@@H](n2c(=O)[nH]c3ccc(N)cc3c2=O)CC1`, in [1], the intrinsic clearance is 5.2 mL/min/g. The selectivity ratio in [2] is 160. Further, in the data set with Trypanosoma cruzi [3], the EC50 was found to be 0.33 µM and the 90% effect level (EC90) was put at 1.2 µg/mL (≈ 4.18 µM). For the same molecule, the solubility kinetic in [4] is above 350 µM. Also, the midpoint of the response in the data set on L6, the EC50, lay at 52 µM.

Take `CC(=O)Nc1ccc2[nH]c(=O)n([C@H]3CC[C@H](C(C)(C)C)CC3)c(=O)c2c1`: the intrinsic clearance in [1] worked out at 3.2 mL/min/g. Moreover, in data set [2], the selectivity ratio turned out to be 180. Moreover, the half-maximal effective concentration (EC50) in the data set with Trypanosoma cruzi [3] amounted to 0.022 µM; in the data set with L6, 3.9 µM. In addition, the solubility kinetic in [4] worked out at 131 µM (≈ 46.8 µg/mL).

Regarding `CC(C)[C@H]1CC[C@@H](n2c(=O)[nH]c3ncc(N)cc3c2=O)CC1`, the intrinsic clearance in data set [1] was 4.8 mL/min/g. In addition, the selectivity ratio in data set [2] amounted to 81. The values for the EC50 with Trypanosoma cruzi [3] and with L6 were 0.57 µM and 46 µM, respectively. The solubility kinetic in [4] is 17 µM (≈ 5.14 µg/mL).

As to `CC[C@H]1CC[C@H](n2c(=O)[nH]c3ncc(NC(C)=O)cc3c2=O)CC1`, the intrinsic clearance in data set [1] amounted to 0.5 mL/min/g. Further, the selectivity ratio in data set [2] came to 720. Besides, the figures for the EC50 in the data set with Trypanosoma cruzi [3] and with L6 were 0.3 µM and 215 µM, respectively. For the same molecule, the solubility kinetic in data set [4] worked out at 22 µM (≈ 7.27 µg/mL).

`CCC[C@H]1CC[C@@H](n2c(=O)[nH]c3ccc(NC(C)=O)cc3c2=O)CC1`: the intrinsic clearance in data set [1] turned out to be 19 mL/min/g. For the same molecule, in data set [2], the selectivity ratio was 700. Further, the figures for the 50% effective concentration (EC50) in the data set on Trypanosoma cruzi [3] and in the data set with L6 were 0.02 µM and 14 µM, respectively. The solubility kinetic in data set [4] worked out at 102 µM (≈ 35 µg/mL).

`CC(=O)Nc1cnc2[nH]c(=O)n([C@H]3CC[C@@H](C(C)(C)C)CC3)c(=O)c2c1`: the intrinsic clearance in data set [1] was determined as 15 mL/min/g. Moreover, in [2], the selectivity ratio was found to be 150. Further, the EC50 in the data set on Trypanosoma cruzi [3] is 0.1 µM; in the data set on L6, 15 µM. In addition, in data set [4], the solubility kinetic is below 28 µM.
